Measurements as given in ChEMBL document CHEMBL1127063, “NMR and computational evidence that high-affinity bradykinin receptor antagonists adopt C-terminal beta-turns” (J Med Chem, 1993).

Key:
B2 bradykinin receptor = biological target: T1, B2 bradykinin receptor (Cavia porcellus, UniProt O70526); assay: In vitro binding affinity against bradykinin receptor B2 from guinea pig ileum.; assay type: tissue-based
T1 sequence (O70526 whole entry): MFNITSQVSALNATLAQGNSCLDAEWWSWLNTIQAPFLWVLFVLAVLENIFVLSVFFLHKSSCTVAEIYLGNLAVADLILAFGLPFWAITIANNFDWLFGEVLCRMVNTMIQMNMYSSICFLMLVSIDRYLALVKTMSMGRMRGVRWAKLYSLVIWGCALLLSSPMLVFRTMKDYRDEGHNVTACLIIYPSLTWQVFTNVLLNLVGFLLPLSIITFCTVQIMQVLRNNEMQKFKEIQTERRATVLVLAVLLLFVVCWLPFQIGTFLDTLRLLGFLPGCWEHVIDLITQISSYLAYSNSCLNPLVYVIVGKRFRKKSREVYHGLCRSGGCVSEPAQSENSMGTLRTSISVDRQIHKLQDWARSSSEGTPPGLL

Cavia porcellus = organism: Cavia porcellus; assay: pA2 value against guinea pig ileum.; assay type: functional; conditions: read-out: pA2 (converted)

Ki (B2 bradykinin receptor) [nM] | Compound | Kb (Cavia porcellus) [nM]
0.75 | NC(N)=NCCC[C@@H](N)C(=O)N[C@@H](CCCN=C(N)N)C(=O)N1CCC[C@H]1C(=O)N1CCC[C@H]1C(=O)NCC(=O)N[C@@H](Cc1ccccc1)C(=O)N[C@@H](CO)C(=O)N[C@H](Cc1ccccc1)C(=O)N1C2CCCCC2C[C@H]1C(=O)N[C@@H](CCCN=C(N)N)C(=O)O (stereo partly specified) | 5.01
0.16 | CCCO[C@H]1C[C@H](C(=O)N2[C@H](C(=O)N[C@@H](CCCNC(=N)N)C(=O)O)C[C@@H]3CCCC[C@@H]32)N(C(=O)[C@H](CO)NC(=O)[C@H](Cc2cccs2)NC(=O)CNC(=O)[C@@H]2C[C@@H](O)CN2C(=O)[C@@H]2CCCN2C(=O)[C@H](CCCNC(=N)N)NC(=O)[C@H](N)CCCNC(=N)N)C1 | 3.16
0.11 | NC(N)=NCCC[C@@H](N)C(=O)N[C@@H](CCCN=C(N)N)C(=O)N1CCC[C@H]1C(=O)N1C[C@H](O)C[C@H]1C(=O)NCC(=O)N[C@@H](Cc1cccs1)C(=O)N[C@@H](CO)C(=O)N1Cc2ccccc2C[C@@H]1C(=O)N1[C@H](C(=O)N[C@@H](CCCN=C(N)N)C(=O)O)C[C@@H]2CCCC[C@@H]21 [ICATIBANT] | 2
